Results taken from patent US12527770B2 (Teikoku Pharma USA, Inc., priority 2016, dated 2026).
Where two headings read alike, the source gives them in different places.

Columns and labels:
[1] = test system: patients after Austin bunionectomy surgery; settings: for use of rescue medication (oxycodone), Mean (SD): n = 43
Experimental: Each transdermal delivery device was applied to the subject between 10 hours and 14 hours before each patient underwent Austin bunionectomy surgery with standard intraoperative anesthesia.
Pain was evaluated in patients at times from immediately after surgery through 72 hours after surgery using the Pain Intensity Numeric Rating Scale (NRS) and Summed Pain Intensity (NRSSPI). Pain was also evaluated based on the time and first use of rescue pain medication as well as total use of rescue medication.

solubility of dexmedetomidine (in Duro-Tak 87-2979): less than 2%
solubility of dexmedetomidine (in Duro-Tak 387/87-2353): 10-15%
solubility of dexmedetomidine (in hydroxyl functionalized acrylate polymer): less than 1%
solubility of dexmedetomidine (in levulinic acid): ~60%
solubility of dexmedetomidine (in oleic acid): ~40%
Structure (SMILES): Cc1cccc([C@H](C)c2cnc[nH]2)c1C [Dexmedetomidine]
use of rescue medication (oxycodone), Mean (SD) ([1]; 0 to 24 Hours after Surgery): 23.5 (11.98)
use of rescue medication (oxycodone), Mean (SD) ([1]; 0 to 48 Hours after Surgery): 37.5 (22.74)
use of rescue medication (oxycodone), Mean (SD) ([1]; 0 to 72 Hours after Surgery): 46.4 (30.80)
proportion of patients requesting rescue medication ([1]; first six hours after surgery, vs placebo): lower proportion
pain intensity difference between dexmedetomidine and placebo ([1]; over a 4-fold mean plasma dexmedetomidine concentration range): constant
pain rating (Numerical Rating Scale) compared to placebo ([1]; through 72 hours after surgery, 2×3 cm^2 patch): lower pain rating
frequency of requests for rescue medication ([1]; vs placebo): less frequently
